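Five compound concentrations were applied to cells in 96-well plates for 48 hours; endpoints were derived by simple linear interpolation of the resulting dose-response curve. GI50 is the concentration that inhibits growth by half.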 The source made the active and inactive calls. Rule as the data show it: active = GI50 up to about 1.1 µM and inactive = higher.
Assays:
Assay in all cases: NCI-60 cell line screen, 48 h
A549 = tested on: A549
ACHN = tested on: ACHN
COLO 205 = tested on: COLO 205
HCT-116 = tested on: HCT-116
HOP-62 = tested on: HOP-62
HT-29 = tested on: HT-29
KM12 = tested on: KM12
MOLT-4 = tested on: MOLT-4
NCI-H23 = tested on: NCI-H23
NCI-H522 = tested on: NCI-H522
OVCAR-3 = tested on: OVCAR-3
OVCAR-4 = tested on: OVCAR-4
SK-MEL-28 = tested on: SK-MEL-28
SK-OV-3 = tested on: SK-OV-3
SN12C = tested on: SN12C
SNB-19 = tested on: SNB-19
SW-620 = tested on: SW-620
UACC-257 = tested on: UACC-257
UACC-62 = tested on: UACC-62

Measured: GI50

O=C1c2ccccc2C(=O)c2c(Nc3cc4c5c(ccc6c7ccc8c9c(cc(Nc%10cccc%11c%10C(=O)c%10ccccc%10C%11=O)c(c3c56)c97)-c3ccccc3C8=O)C(=O)c3ccccc3-4)cccc21
inactive: A549 61.7 µM | ACHN 36.1 µM | COLO 205 > 100 µM | HCT-116 88.9 µM | HOP-62 17 µM | HT-29 > 100 µM | KM12 > 100 µM | MOLT-4 37.8 µM | NCI-H23 > 100 µM | NCI-H522 71 µM | OVCAR-3 41.2 µM | OVCAR-4 65.8 µM | SK-MEL-28 > 100 µM | SK-OV-3 16.6 µM | SN12C > 100 µM | SNB-19 29.9 µM | SW-620 > 100 µM | UACC-257 > 100 µM | UACC-62 > 100 µM

Cc1ccc(S(=O)(=O)N(CCN)c2cc3c4c(c2)Oc2cccc5c2C4c2c(cccc2O3)O5)cc1
inactive: A549 25.7 µM | ACHN 44.7 µM | COLO 205 22.6 µM | HCT-116 16.3 µM | HOP-62 15.4 µM | HT-29 14.9 µM | KM12 > 100 µM | MOLT-4 18.5 µM | NCI-H23 36.1 µM | OVCAR-3 20 µM | OVCAR-4 > 10 µM | SK-MEL-28 25.2 µM | SK-OV-3 27 µM | SN12C 34 µM | SNB-19 29.4 µM | SW-620 36.5 µM | UACC-257 30.5 µM | UACC-62 47.3 µM

Cn1c(=O)c2ccccc2c2nc3ccccc3nc21
inactive: A549 > 100 µM | ACHN > 100 µM | COLO 205 > 100 µM | HCT-116 > 100 µM | HT-29 > 100 µM | KM12 > 100 µM | MOLT-4 > 100 µM | NCI-H23 > 100 µM | SK-MEL-28 > 100 µM | SK-OV-3 37.2 µM | SN12C > 100 µM | SNB-19 > 100 µM | SW-620 > 100 µM | UACC-257 > 100 µM | UACC-62 > 100 µM

O=C(Nc1ccccc1-c1n[nH]c(S)nc1=O)C(F)(F)F
inactive: A549 > 100 µM | ACHN > 100 µM | COLO 205 > 100 µM | HCT-116 > 100 µM | HOP-62 > 100 µM | HT-29 > 100 µM | KM12 > 100 µM | MOLT-4 > 100 µM | NCI-H23 > 100 µM | NCI-H522 64.3 µM | OVCAR-3 > 100 µM | OVCAR-4 > 100 µM | SK-MEL-28 > 100 µM | SK-OV-3 > 100 µM | SN12C > 100 µM | SNB-19 > 100 µM | SW-620 > 100 µM | UACC-62 > 100 µM

C/C=C1/CN2CC[C@@H]3c4ccccc4N4[C@H](C(=O)OC)[C@H]1C[C@H]2[C@]34/C=C/C1=COC[C@@H]2[C@H]1C[C@H]1c3c(c4ccccc4n3C)C[C@@H]2N1C
inactive: A549 4.16 µM | ACHN 4.03 µM | COLO 205 3.4 µM | HCT-116 3.89 µM | HOP-62 3.82 µM | HT-29 2.77 µM | MOLT-4 4.02 µM | NCI-H23 4.39 µM | OVCAR-3 4.33 µM | OVCAR-4 3.61 µM | SK-MEL-28 5.15 µM | SK-OV-3 4.57 µM | SN12C 4.33 µM | SNB-19 3.64 µM | SW-620 3.83 µM | UACC-257 4.52 µM | UACC-62 4.86 µM

O=c1[nH]c(-c2ccc([N+](=O)[O-])cc2)nc2ccc(Cl)cc12
inactive: A549 > 100 µM | ACHN > 100 µM | COLO 205 > 100 µM | HCT-116 > 100 µM | HT-29 > 100 µM | KM12 > 100 µM | MOLT-4 23.6 µM | NCI-H23 > 100 µM | SK-MEL-28 > 100 µM | SK-OV-3 77.3 µM | SN12C > 100 µM | SNB-19 66.2 µM | SW-620 > 100 µM | UACC-257 > 100 µM | UACC-62 > 100 µM

Reference: ChEMBL document CHEMBL1201862, “PubChem BioAssay data set” (2004)
